Patent publication US20060264408A1, “Sod minic multifunctional compounds for treating inflammatory bowel disease” (priority 2003, published 2006)

Tested on: acetic acid-induced colitis
Test: acetic acid-induced colitis in rats: oxidative stress markers (PCC, TBARS) in colonic tissue
Conditions: for TBARS (thiobarbituric acid reactive substrates), Pre-treatment / PCC (tissue protein carbonyl content), Pre-treatment: administered 10 minutes before induction of colitis; for TBARS (thiobarbituric acid reactive substrates), Pre-treatment / PCC (tissue protein carbonyl content), Pre-treatment / TBARS (thiobarbituric acid reactive substrates), Post-treatment / PCC (tissue protein carbonyl content), Post-treatment: 5-ASA 100 mg/kg, LA 50 mg/kg, compounds 1 and 7 50 mg/kg, sacrificed 24 hr post induction; for TBARS (thiobarbituric acid reactive substrates), Pre-treatment: control 18 ± 4, AA alone 187 ± 14; for PCC (tissue protein carbonyl content), Pre-treatment: control 261 ± 27, AA alone 1687 ± 98; for TBARS (thiobarbituric acid reactive substrates), Post-treatment / PCC (tissue protein carbonyl content), Post-treatment: administered 30 minutes after induction of colitis; for TBARS (thiobarbituric acid reactive substrates), Post-treatment: control 15 ± 3, AA alone 163 ± 14; for PCC (tissue protein carbonyl content), Post-treatment: control 273 ± 21, AA alone 1587 ± 95; for activity compared with 5-ASA and lipoic acid: acetic acid-induced rat colitis; for treated rats compared with control healthy rats (PCC, TBARS): results of the table, P<0.05

Nc1ccc(O)c(C(=O)O)c1 [Compound 5-ASA, 5-aminosalicylic acid, reference compound]
TBARS (thiobarbituric acid reactive substrates), Pre-treatment: 89 ± 9
PCC (tissue protein carbonyl content), Pre-treatment: 959 ± 48
TBARS (thiobarbituric acid reactive substrates), Post-treatment: 74 ± 9
PCC (tissue protein carbonyl content), Post-treatment: 873 ± 79

Cc1cc(O)c(C(=O)O)cc1/N=N\c1ccc2c(c1)C(C)(C)N([O])C2(C)C [Compound 1]
activity compared with 5-ASA and lipoic acid: more active than either of LA or ASA used separately or even simultaneously
TBARS (thiobarbituric acid reactive substrates), Pre-treatment: 27 ± 4
PCC (tissue protein carbonyl content), Pre-treatment: 293 ± 33
TBARS (thiobarbituric acid reactive substrates), Post-treatment: 18 ± 3
PCC (tissue protein carbonyl content), Post-treatment: 278 ± 32
treated rats compared with control healthy rats (PCC, TBARS): statistically indifferent from control healthy rats

O=C(O)CCCC[C@@H]1CCSS1 (racemic) [lipoic acid, reference compound]
activity compared with 5-ASA and lipoic acid: as effective as 5-ASA
TBARS (thiobarbituric acid reactive substrates), Pre-treatment: 73 ± 8
PCC (tissue protein carbonyl content), Pre-treatment: 867 ± 73
TBARS (thiobarbituric acid reactive substrates), Post-treatment: 64 ± 8
PCC (tissue protein carbonyl content), Post-treatment: 713 ± 31

O=C(O)c1cc2[nH]c(CCCCC3CCSS3)nc2cc1O (stereo not drawn) [Compound 7]
activity compared with 5-ASA and lipoic acid: more active than either of LA or ASA used separately or even simultaneously
TBARS (thiobarbituric acid reactive substrates), Pre-treatment: 21 ± 3
PCC (tissue protein carbonyl content), Pre-treatment: 284 ± 26
TBARS (thiobarbituric acid reactive substrates), Post-treatment: 19 ± 2
PCC (tissue protein carbonyl content), Post-treatment: 269 ± 28
treated rats compared with control healthy rats (PCC, TBARS): statistically indifferent from control healthy rats
